Laboratory results from the kinase profiling compilation of Christmann-Franck et al. (2016).

What was measured:
Test in all cases: KINOMEscan competition binding
Conditions in all cases: compound 10.0 µM
CSF1R (human) = CSF1R (human) (UniProt P07333)
EPHA2 (human) = EPHA2 (human) (UniProt P29317)
STK10 (human) = STK10 (human) (UniProt O94804)
MAP2K4 (human) = MAP2K4 (human) (UniProt P45985)
NTRK2 (human) = NTRK2 (human) (UniProt Q16620)
PKMYT1 (human) = PKMYT1 (human) (UniProt Q99640)
MAP3K11 (human) = MAP3K11 (human) (UniProt Q16584)
ERBB2 (human) = ERBB2 (human) (UniProt P04626)
CAMKK1 (human) = CAMKK1 (human) (UniProt Q8N5S9)
ABL2 (human) = ABL2 (human) (UniProt P42684)
RPS6KA1 KD1 (human) = RPS6KA1 KD1 (human) (UniProt Q15418)
CLK3 (human) = CLK3 (human) (UniProt P49761)
ACVR2A (human) = ACVR2A (human) (UniProt P27037)
MAP3K6 (human) = MAP3K6 (human) (UniProt O95382)
ERN1 (human) = ERN1 (human) (UniProt O75460)
PTK6 (human) = PTK6 (human) (UniProt Q13882)
RPS6KA4 KD1 (human) = RPS6KA4 KD1 (human) (UniProt O75676)
MYLK3 (human) = MYLK3 (human) (UniProt Q32MK0)
YES1 (human) = YES1 (human) (UniProt P07947)
PKN3 (M.tuberculosis) = PKN3 (M.tuberculosis) (UniProt Q6P5Z2)
[1] = molecular target: TYK2 JH1 catalytic (human) (UniProt P29597)
MAP3K3 (human) = MAP3K3 (human) (UniProt Q99759)
MAP2K1 (human) = MAP2K1 (human) (UniProt Q02750)
MST4 (human) = MST4 (human) (UniProt Q9P289)
EPHA6 (human) = EPHA6 (human) (UniProt Q9UF33)
TNIK (human) = TNIK (human) (UniProt Q9UKE5)
FES (human) = FES (human) (UniProt P07332)
NTRK1 (human) = NTRK1 (human) (UniProt P04629)
CDK18 (human) = CDK18 (human) (UniProt Q07002)
NEK6 (human) = NEK6 (human) (UniProt Q9HC98)
CDK17 (human) = CDK17 (human) (UniProt Q00537)
WEE1 (human) = WEE1 (human) (UniProt P30291)
TGFBR2 (human) = TGFBR2 (human) (UniProt P37173)
NUAK1 (human) = NUAK1 (human) (UniProt O60285)
LRRK2 (human) = LRRK2 (human) (UniProt Q5S007)
PRKCI (human) = PRKCI (human) (UniProt P41743)
NUAK2 (human) = NUAK2 (human) (UniProt Q9H093)
ALK (human) = ALK (human) (UniProt Q9UM73)
[2] = test system: EGFR (human), P00533 [L858R]
MELK (human) = MELK (human) (UniProt Q14680)

Sequence of PKMYT1 (human) (Q99640 whole entry, looked up): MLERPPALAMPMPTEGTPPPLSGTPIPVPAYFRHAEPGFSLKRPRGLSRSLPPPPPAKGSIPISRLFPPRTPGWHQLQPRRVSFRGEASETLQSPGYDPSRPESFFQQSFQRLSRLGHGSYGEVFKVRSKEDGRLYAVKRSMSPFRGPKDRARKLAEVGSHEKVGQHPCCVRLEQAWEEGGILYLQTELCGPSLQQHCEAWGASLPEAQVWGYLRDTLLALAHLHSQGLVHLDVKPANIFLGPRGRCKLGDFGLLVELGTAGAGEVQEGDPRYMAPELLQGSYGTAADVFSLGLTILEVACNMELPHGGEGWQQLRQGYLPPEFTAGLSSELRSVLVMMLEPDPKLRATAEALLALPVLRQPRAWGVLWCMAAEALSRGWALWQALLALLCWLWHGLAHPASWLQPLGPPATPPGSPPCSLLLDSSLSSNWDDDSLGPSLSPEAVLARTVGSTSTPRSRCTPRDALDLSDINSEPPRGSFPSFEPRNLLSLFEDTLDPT
Sequence of ABL2 (human) (P42684 whole entry, looked up): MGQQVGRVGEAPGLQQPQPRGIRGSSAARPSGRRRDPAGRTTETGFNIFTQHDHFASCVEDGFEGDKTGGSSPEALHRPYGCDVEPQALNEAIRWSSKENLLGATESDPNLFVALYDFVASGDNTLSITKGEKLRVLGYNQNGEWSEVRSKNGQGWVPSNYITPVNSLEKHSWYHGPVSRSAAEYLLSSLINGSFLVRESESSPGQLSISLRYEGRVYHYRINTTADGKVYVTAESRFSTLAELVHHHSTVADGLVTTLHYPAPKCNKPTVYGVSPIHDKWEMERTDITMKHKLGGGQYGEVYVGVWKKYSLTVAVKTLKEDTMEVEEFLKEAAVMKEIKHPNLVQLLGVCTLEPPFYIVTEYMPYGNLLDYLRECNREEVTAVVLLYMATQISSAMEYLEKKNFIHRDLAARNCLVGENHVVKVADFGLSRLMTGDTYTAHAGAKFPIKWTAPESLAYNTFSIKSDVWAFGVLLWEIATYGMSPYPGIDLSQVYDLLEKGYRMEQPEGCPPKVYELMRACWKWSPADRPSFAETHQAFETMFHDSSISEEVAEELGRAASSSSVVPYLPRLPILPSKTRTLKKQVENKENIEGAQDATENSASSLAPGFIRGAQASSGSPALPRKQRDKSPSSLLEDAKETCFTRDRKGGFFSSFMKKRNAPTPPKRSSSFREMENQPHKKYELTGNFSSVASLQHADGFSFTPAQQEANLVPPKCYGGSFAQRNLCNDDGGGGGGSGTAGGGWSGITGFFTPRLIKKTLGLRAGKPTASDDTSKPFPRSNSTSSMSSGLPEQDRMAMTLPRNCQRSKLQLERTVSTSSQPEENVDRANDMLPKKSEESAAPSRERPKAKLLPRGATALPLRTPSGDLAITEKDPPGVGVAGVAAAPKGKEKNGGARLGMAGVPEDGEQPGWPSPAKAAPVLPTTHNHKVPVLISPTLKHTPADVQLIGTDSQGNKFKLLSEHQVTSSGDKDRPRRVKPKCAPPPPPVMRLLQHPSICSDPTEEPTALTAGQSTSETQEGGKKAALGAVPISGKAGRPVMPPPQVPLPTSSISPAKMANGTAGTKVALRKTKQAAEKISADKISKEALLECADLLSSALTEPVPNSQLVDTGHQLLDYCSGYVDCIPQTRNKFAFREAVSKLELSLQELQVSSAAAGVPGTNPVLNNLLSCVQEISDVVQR
Sequence of MAP3K3 (human) (Q99759 whole entry, looked up): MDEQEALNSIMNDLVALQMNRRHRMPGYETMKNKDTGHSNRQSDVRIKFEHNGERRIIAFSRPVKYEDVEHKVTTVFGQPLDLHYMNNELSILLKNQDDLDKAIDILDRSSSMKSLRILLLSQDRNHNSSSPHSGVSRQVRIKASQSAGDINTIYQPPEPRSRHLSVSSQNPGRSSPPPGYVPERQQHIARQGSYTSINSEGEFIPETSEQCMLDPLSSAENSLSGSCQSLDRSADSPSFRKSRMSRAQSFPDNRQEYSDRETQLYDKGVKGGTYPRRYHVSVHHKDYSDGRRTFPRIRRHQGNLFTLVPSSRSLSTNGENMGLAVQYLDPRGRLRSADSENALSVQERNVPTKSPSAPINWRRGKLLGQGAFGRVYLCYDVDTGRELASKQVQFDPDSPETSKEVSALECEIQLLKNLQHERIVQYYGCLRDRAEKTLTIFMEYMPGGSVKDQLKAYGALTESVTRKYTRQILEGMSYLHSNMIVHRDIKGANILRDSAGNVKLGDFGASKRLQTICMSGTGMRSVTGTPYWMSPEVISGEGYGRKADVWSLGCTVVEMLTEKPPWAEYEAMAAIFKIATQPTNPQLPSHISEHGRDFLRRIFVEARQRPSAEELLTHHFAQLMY
Sequence of NTRK1 (human) (P04629 whole entry, looked up): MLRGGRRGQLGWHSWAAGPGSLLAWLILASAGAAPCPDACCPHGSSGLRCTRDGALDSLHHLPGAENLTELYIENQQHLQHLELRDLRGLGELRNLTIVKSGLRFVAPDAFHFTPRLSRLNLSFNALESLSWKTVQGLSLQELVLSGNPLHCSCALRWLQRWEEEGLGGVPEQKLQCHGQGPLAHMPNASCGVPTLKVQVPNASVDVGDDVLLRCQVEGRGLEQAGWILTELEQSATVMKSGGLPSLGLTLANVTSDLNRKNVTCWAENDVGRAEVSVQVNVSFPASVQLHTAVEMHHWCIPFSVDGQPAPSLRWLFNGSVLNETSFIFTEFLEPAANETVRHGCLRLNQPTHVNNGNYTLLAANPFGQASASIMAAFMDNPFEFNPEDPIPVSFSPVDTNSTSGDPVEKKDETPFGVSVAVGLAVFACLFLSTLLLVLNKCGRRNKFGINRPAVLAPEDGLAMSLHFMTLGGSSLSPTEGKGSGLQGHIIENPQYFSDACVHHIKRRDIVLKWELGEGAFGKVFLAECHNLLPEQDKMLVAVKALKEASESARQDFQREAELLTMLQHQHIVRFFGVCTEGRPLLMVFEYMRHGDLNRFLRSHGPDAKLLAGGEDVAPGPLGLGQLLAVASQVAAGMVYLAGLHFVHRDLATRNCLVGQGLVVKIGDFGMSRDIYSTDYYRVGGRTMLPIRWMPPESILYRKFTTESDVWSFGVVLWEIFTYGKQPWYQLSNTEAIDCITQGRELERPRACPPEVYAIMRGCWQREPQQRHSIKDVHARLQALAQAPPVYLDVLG
Sequence of TYK2 JH1 catalytic (human) (P29597 whole entry, looked up): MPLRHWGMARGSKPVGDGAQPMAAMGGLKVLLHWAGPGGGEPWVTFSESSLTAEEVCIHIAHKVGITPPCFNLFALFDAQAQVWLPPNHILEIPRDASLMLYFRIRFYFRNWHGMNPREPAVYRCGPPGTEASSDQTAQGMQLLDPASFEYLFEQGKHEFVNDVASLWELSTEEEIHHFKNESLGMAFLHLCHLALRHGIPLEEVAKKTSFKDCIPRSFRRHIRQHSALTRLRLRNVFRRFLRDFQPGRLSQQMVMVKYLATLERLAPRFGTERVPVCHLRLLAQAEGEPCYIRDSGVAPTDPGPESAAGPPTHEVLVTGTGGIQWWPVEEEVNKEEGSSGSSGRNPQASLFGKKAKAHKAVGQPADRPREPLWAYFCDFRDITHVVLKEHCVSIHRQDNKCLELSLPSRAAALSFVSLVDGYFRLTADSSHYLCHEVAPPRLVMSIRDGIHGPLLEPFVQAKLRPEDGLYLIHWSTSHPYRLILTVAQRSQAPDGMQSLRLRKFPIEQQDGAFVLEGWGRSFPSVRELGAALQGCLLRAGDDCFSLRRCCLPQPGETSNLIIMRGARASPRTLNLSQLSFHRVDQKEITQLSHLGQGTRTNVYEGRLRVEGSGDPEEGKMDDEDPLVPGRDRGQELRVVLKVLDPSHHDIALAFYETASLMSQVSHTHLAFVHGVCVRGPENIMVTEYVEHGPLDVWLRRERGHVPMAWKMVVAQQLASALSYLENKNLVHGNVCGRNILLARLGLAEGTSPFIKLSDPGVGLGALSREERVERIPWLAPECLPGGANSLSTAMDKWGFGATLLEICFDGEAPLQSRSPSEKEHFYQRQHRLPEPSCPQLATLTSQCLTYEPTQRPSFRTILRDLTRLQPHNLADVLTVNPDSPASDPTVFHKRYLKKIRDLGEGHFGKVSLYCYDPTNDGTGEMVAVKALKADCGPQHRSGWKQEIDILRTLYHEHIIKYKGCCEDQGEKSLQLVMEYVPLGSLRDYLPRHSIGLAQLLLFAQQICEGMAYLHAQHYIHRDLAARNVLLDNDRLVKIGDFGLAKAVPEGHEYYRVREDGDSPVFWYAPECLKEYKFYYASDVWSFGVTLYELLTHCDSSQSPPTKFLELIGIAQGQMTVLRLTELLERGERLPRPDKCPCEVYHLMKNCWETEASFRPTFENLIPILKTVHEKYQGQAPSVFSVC
Sequence of ACVR2A (human) (P27037 whole entry, looked up): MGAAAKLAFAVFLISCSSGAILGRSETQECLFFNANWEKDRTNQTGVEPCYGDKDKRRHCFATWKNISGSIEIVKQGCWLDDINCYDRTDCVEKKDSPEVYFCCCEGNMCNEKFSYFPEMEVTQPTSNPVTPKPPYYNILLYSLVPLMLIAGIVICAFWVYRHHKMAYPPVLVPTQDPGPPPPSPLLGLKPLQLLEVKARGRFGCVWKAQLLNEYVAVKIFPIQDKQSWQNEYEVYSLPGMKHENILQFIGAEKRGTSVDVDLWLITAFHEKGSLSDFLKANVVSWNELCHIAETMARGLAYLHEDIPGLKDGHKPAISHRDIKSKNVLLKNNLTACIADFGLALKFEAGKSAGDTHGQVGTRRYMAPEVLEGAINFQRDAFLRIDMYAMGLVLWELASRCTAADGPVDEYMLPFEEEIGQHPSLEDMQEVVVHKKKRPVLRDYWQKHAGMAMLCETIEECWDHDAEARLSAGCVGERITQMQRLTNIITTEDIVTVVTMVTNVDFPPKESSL

SMILES | kinase still bound, per cent of control (CSF1R (human)) | kinase still bound, per cent of control (EPHA2 (human)) | kinase still bound, per cent of control (STK10 (human)) | kinase still bound, per cent of control (NTRK2 (human)) | kinase still bound, per cent of control (PKMYT1 (human)) | kinase still bound, per cent of control (ERBB2 (human)) | kinase still bound, per cent of control (CAMKK1 (human)) | kinase still bound, per cent of control (RPS6KA1 KD1 (human)) | kinase still bound, per cent of control (CLK3 (human)) | kinase still bound, per cent of control (ERN1 (human)) | kinase still bound, per cent of control (RPS6KA4 KD1 (human)) | kinase still bound, per cent of control (MYLK3 (human)) | kinase still bound, per cent of control (YES1 (human)) | kinase still bound, per cent of control [1] | kinase still bound, per cent of control (MAP3K3 (human)) | kinase still bound, per cent of control (MAP2K1 (human)) | kinase still bound, per cent of control (MST4 (human)) | kinase still bound, per cent of control (EPHA6 (human)) | kinase still bound, per cent of control (TNIK (human)) | kinase still bound, per cent of control (FES (human)) | further results
CCc1nc(-c2cccc(C)c2)c(-c2ccnc(NC(=O)c3ccccc3)c2)s1 | 76% | 66% | 59% | 100% | 64% | 43% | 100% | 89% | 78% | 100% | 100% | 93% | 5.6% | 100% | 92% | 86% | 100% | 47% | 5.5% | 97% | kinase still bound, per cent of control (MAP2K4 (human)): 95%; kinase still bound, per cent of control (MAP3K11 (human)): 70%; kinase still bound, per cent of control (ABL2 (human)): 47%; kinase still bound, per cent of control (ACVR2A (human)): 70%; kinase still bound, per cent of control (MAP3K6 (human)): 100%; kinase still bound, per cent of control (PTK6 (human)): 30%; kinase still bound, per cent of control (PKN3 (M.tuberculosis)): 100%; kinase still bound, per cent of control (NTRK1 (human)): 100%; kinase still bound, per cent of control (CDK18 (human)): 96%; kinase still bound, per cent of control (NEK6 (human)): 100%; kinase still bound, per cent of control (CDK17 (human)): 99%; kinase still bound, per cent of control (WEE1 (human)): 100%; kinase still bound, per cent of control (TGFBR2 (human)): 82%; kinase still bound, per cent of control (NUAK1 (human)): 100%; kinase still bound, per cent of control (LRRK2 (human)): 100%; kinase still bound, per cent of control (PRKCI (human)): 100%; kinase still bound, per cent of control (NUAK2 (human)): 100%
Cc1cn(-c2cc(C(=O)Nc3ccc(C)c(NC(=O)c4ccno4)c3)cc(C(F)(F)F)c2)cn1 | 0.2% | 1.6% | 100% | 100% | 100% | 100% | 100% | 100% | 100% | 100% | 100% | 100% | 13% | 100% | 100% | 100% | 100% | 100% | 100% | 100% | kinase still bound, per cent of control (MAP2K4 (human)): 100%; kinase still bound, per cent of control (MAP3K11 (human)): 100%; kinase still bound, per cent of control (ABL2 (human)): 1.8%; kinase still bound, per cent of control (ALK (human)): 100%; kinase still bound, per cent of control [2]: 100%; kinase still bound, per cent of control (ACVR2A (human)): 100%; kinase still bound, per cent of control (MAP3K6 (human)): 100%; kinase still bound, per cent of control (PTK6 (human)): 24%; kinase still bound, per cent of control (NTRK1 (human)): 100%; kinase still bound, per cent of control (CDK18 (human)): 100%; kinase still bound, per cent of control (NEK6 (human)): 100%; kinase still bound, per cent of control (CDK17 (human)): 100%; kinase still bound, per cent of control (WEE1 (human)): 100%; kinase still bound, per cent of control (TGFBR2 (human)): 100%; kinase still bound, per cent of control (NUAK1 (human)): 100%; kinase still bound, per cent of control (MELK (human)): 100%; kinase still bound, per cent of control (NUAK2 (human)): 100%
CCN(CCO)CCCOc1ccc2c(Nc3cc(CC(=O)Nc4cccc(F)c4)[nH]n3)ncnc2c1 | 5% | 76% | 11% | 8.2% | 84% | 13% | 71% | 83% | 100% | 67% | 73% | 98% | 42% | 85% | 70% | 32% | 37% | 69% | 52% | 100% | kinase still bound, per cent of control (MAP2K4 (human)): 100%; kinase still bound, per cent of control (MAP3K11 (human)): 100%; kinase still bound, per cent of control (ALK (human)): 98%; kinase still bound, per cent of control (ACVR2A (human)): 100%; kinase still bound, per cent of control (PTK6 (human)): 72%; kinase still bound, per cent of control (PKN3 (M.tuberculosis)): 50%; kinase still bound, per cent of control (NTRK1 (human)): 6.8%; kinase still bound, per cent of control (CDK18 (human)): 62%; kinase still bound, per cent of control (CDK17 (human)): 73%; kinase still bound, per cent of control (WEE1 (human)): 100%; kinase still bound, per cent of control (TGFBR2 (human)): 100%; kinase still bound, per cent of control (NUAK1 (human)): 60%; kinase still bound, per cent of control (MELK (human)): 47%; kinase still bound, per cent of control (LRRK2 (human)): 100%; kinase still bound, per cent of control (PRKCI (human)): 96%; kinase still bound, per cent of control (NUAK2 (human)): 54%
CC(=O)c1c(C)c2cnc(Nc3ccc(N4CCNCC4)cn3)nc2n(C2CCCC2)c1=O | 50% | 95% | 23% | 12% | 77% | 79% | 20% | 12% | 55% | 34% | 75% | 7.6% | 83% | 18% | 4.2% | 20% | 26% | 96% | 23% | 80% | kinase still bound, per cent of control (ABL2 (human)): 97%; kinase still bound, per cent of control (ALK (human)): 38%; kinase still bound, per cent of control (MAP3K6 (human)): 69%; kinase still bound, per cent of control (PKN3 (M.tuberculosis)): 1%; kinase still bound, per cent of control (NTRK1 (human)): 6.5%; kinase still bound, per cent of control (CDK18 (human)): 20%; kinase still bound, per cent of control (NEK6 (human)): 69%; kinase still bound, per cent of control (CDK17 (human)): 2.7%; kinase still bound, per cent of control (WEE1 (human)): 36%; kinase still bound, per cent of control (NUAK1 (human)): 48%; kinase still bound, per cent of control (MELK (human)): 40%; kinase still bound, per cent of control (LRRK2 (human)): 50%; kinase still bound, per cent of control (PRKCI (human)): 57%; kinase still bound, per cent of control (NUAK2 (human)): 1%
